Assay results published in US20250092044A1, “Kinase Inhibitors” (Incyte Corporation, priority 2023, published 2025).
Like-named read-outs stand apart in the source and are kept apart here.

What was measured:
[1] = target: pseudo-kinase domain (JH2) of human V617F mutant JAK2 (Homo sapiens (Human), UniProt O60674, F794H/V617F/W659A/W777A); assay: JAK2 LanthaScreen JH2-V617F Binding Assay; conditions: read-out: JH2 V617F Bind IC50
Method: JAK2 JH2-V617F binding assay utilizes pseudo-kinase domain (JH2, amino-acids 536-812 with 3 surface mutations W659A, W777A, F794H) of human V617F mutant JAK2 expressed as C-terminal His-Avi-tagged, biotinylated protein in a baculovirus expression system (BPS Bioscience, Catalog #79498). The assay was conducted in black 384-well polystyrene plates in a final reaction volume of 20 μL. JAK2 JH2-V617F (0.26 nM) was incubated with compounds (100 nL serially diluted in DMSO) in the presence of 50 nM Fluorescent JAK2-JH2 Tracer (MedChem Express Catalog #HY-102055) and 0.25 nM Streptavidin-Tb cryptate (Cisbio Part #610SATLB) in assay buffer (50 mM Tris, pH=7.5, 10 mM MgCl2, 0.01% Brij-35, 0.1% BSA, 1 mM EGTA, 5% Glycerol and 5 mM DTT). Non-specific binding was accessed in the presence of 2 mM ATP. After incubation for 1 hour at 25° C., LanthaScreen signals were read on a PHERAstar FS plate reader (BMG LABTECH). Data was analyzed with IDBS XLfit and GraphPad Prism 5.0 software using a four parameter dose response curve to determine IC50 for each compound.

FLT3 [2] = target: FLT3 (Homo sapiens (Human), UniProt P36888); assay: FLT3 Enzymatic Assay; type: biochemical; conditions: 1 mM ATP
Chain of FLT3 (Homo sapiens (Human), UniProt P36888) (P36888 27-993, species assumed): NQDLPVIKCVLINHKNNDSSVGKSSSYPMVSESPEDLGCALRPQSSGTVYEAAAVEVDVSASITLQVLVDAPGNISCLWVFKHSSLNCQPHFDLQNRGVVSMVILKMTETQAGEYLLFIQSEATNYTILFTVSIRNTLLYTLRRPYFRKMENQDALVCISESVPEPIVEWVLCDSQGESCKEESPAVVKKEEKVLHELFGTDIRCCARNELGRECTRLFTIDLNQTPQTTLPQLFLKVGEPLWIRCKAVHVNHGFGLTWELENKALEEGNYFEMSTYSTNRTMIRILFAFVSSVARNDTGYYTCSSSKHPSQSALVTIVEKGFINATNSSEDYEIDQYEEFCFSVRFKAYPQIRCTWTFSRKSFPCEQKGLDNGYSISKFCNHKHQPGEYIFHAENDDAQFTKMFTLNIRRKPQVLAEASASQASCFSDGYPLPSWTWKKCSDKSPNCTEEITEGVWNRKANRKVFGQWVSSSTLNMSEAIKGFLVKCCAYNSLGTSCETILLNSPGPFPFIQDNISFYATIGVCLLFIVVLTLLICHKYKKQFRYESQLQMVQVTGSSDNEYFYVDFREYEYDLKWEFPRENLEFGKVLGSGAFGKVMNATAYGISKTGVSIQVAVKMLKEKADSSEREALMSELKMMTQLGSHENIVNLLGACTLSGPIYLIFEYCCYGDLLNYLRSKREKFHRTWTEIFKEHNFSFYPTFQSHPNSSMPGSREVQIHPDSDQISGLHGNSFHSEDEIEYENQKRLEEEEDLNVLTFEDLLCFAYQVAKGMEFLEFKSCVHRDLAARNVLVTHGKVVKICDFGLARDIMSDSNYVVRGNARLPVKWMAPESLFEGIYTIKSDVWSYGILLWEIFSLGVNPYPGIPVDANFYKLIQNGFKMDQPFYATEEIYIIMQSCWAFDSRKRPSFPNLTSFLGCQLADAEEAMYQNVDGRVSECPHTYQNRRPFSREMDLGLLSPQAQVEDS
Method: (§1) The kinase assays were carried out at room temperature in assay buffer (HEPES 50 mM, pH 7.0, NaN3 0.02%, BSA 0.01%, Orthovanadate 0.1 mM, DTT 1 mM, MgCl2 10 mM) in a final volume of 10 μL. Testing compounds were prepared by serial dilution in DMSO and transferred to the plate wells by ECHO liquid handler (Labcyte) with 0.5% DMSO in the final assay. […]. Reactions were initiated by the addition of 5 μL ATP in assay buffer. The final 10 μL kinase reaction consists of 0.011 nM FLT3, 1 mM ATP, 500 nM TK Substrate-biotin and SEB reagent 62.5 nM in assay buffer. […] The plates were then sealed and centrifuged at 1800 rpm for 2 minutes. After 60 minutes incubation at room temperature, the product activity was determined by measuring the fluorescence at 620 nm and 665 nm on Pherastar microplate reader (BMG Labtech). A ratio is calculated (665/620 nm) for each well. Wells with DMSO only were served as the positive controls and wells containing no ATP were used as negative controls. IC50 determination was performed by fitting the curve of percent control activity versus the log of the compound concentration using the GraphPad Prism 7.0 software.

FLT3 [3] = assay: FLT3 Enzymatic Assay; type: biochemical
Method: as §1

TRKA [4] = target: TRKA (Homo sapiens (Human), UniProt P04629); assay: TRKA Enzymatic Assay; type: biochemical; conditions: 1 mM ATP
Chain of TRKA (Homo sapiens (Human), UniProt P04629) (P04629 33-796, species assumed): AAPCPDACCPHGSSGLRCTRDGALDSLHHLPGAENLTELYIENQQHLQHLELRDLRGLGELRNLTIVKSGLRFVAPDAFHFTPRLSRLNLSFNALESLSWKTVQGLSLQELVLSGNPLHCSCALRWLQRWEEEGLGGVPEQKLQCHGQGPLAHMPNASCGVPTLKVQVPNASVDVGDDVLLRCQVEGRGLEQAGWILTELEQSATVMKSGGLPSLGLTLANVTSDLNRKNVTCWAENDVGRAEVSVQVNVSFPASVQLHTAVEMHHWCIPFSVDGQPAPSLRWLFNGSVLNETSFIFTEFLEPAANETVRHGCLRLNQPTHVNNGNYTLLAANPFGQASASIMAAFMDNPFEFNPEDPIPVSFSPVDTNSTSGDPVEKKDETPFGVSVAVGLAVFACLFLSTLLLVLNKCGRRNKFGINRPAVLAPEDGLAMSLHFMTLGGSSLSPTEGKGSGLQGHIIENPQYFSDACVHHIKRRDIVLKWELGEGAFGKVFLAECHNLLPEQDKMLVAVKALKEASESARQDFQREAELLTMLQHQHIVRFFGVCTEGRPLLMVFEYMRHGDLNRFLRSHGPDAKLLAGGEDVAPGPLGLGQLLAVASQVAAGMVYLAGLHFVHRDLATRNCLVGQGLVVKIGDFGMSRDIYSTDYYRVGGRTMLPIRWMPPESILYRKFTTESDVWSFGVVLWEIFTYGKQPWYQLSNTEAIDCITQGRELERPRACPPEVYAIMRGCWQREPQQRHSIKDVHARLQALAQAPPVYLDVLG
Method: (§2) The kinase assays were carried out at 24° C. temperature in assay buffer (HEPES 50 mM, pH 7.0, NaN3 0.02%, BSA 0.01%, Orthovanadate 0.1 mM, DTT 1 mM, MgCl2 10 mM) in a final volume of 10 μL. Testing compounds were prepared by serial dilution in DMSO and transferred to the plate wells by ECHO liquid handler (Labcyte) with 0.5% DMSO in the final assay. […]. Reactions were initiated by the addition of 5 μL ATP in assay buffer. The final 10 μL kinase reaction consisted of 0.58 nM TRKA, 1 mM ATP, 500 nM TK Substrate-biotin and SEB reagent 62.5 nM in assay buffer. […] After 60 minutes incubation at room temperature, the product activity was determined by measuring the fluorescence at 620 nm and 665 nm on Pherastar microplate reader (BMG Labtech). A ratio was calculated (665/620 nm) for each well. Wells with DMSO only served as the positive controls and wells containing no ATP were used as negative controls. IC50 determination was performed by fitting the curve of percent control activity versus the log of the compound concentration using the Gene data.

TRKA [5] = assay: TRKA Enzymatic Assay; type: biochemical
Method: as §2

FaSSIF Solubility Assay = type: physicochemical; conditions: FaSSIF (fasted state simulated intestinal fluid), 25 °C, pH 6.5, fassif, thermodynamic from solid, FaSSIF pH=6.5, 25° C.
From the text: The FaSSIF (Fasted State Simulated Intestinal Fluid) solubility assay can predict how an oral drug is likely to be dissolved and potentially absorbed in the upper intestine after drinking a glass of water. FaSSIF solubility assay utilizes biorelevant intestinal media (Biorelevant, Part #FFF01) comprised of physiological surfactants, bile salts, and phospholipids that are present in the gastrointestinal fluids it mimics. FaSSIF (pH=6.5) has the average pH of a fasted intestinal fluid with similar osmolarity. The FaSSIF buffer was prepared by adding 20 mL of phosphate buffer to FaSSIF Powder. The buffer was then added to the dry compound of interest at a concentration of 1 mg/mL and then incubated at 25° C. for 24 hours in a Rototherm Plus (Part #H2024). After incubation, the Eppendorf tubes were centrifuged and run on an Agilent 1260 LC-MS. The LC-MS method is a 5 min gradient method of 2% to 95% acetonitrile with water (0.05% TFA) using a Sunfire C18, 5 um 2.1×50 mm (Part #186002539) column. A dry reference compound of interest was diluted to a known 1 mg/mL concentration in 1:1 of water and acetonitrile. Step-wise serial dilutions were performed and run on an Agilent 1260 LC-MS using the same conditions to make a standard curve. The area under the curve is reported for the compound of interest in FaSSIF buffer and the reference standards. Calculations were performed and the predicted solubility, μg/mL, was reported for compounds of the examples.

[6] = system: STAT5 (Tyr694) phosphorylation in SET-2 cells; assay: STAT5 (Tyr694) Phosphorylation Cell Based Assay; conditions: Homo sapiens, 2 hours, read-out: SET2 IC50
Method: SET-2 cells was purchased from DSMZ (Germany). RPMI1640 medium, Fetal Bovine Serum and 384-white sold flat-bottom small volume plate were purchased from Thermo Fisher Scientific (Waltham, MA). Phospho-STAT5 (Tyr694) HTRF kit was purchased from Perkin Elmer (Waltham, MA).
SET-2 cells were cultured in RPMI media with 20% FBS at 37° C. in humidified incubator supplied with 5% CO2. On the day of assay, the cells were centrifuged to remove the culture media and resuspended with prewarmed RPMI with 10% FBS. Testing compounds were prepared by serial dilution in DMSO and 50 nL/well test compounds were transferred to the 384 white low volume cell culture plate (Greiner Bio-one) by ECHO liquid handler (Labcyte). The cells were then dispensed with Multidrop (Thermo Fisher, Waltham, MA) at 10 μL/well (7×10^6 cells/mL) with 0.5% DMSO in the final assay. After the treated cells were incubated for 2 hours at 37° C./5% CO2 incubator, 4 μL/well supplemented lysis buffer (100× blocking buffer diluted 25 fold in 4× lysis buffer, Perkin Elmer) were added and incubated at room temperature for 90 min on orbital shaker at 600 rpm. Phospho-STAT5 Cryptate antibody and Phospho-STAT5 d2 antibody (1:1 vol/vol) were premixed and diluted 20 fold with in the detection buffer (Perkin Elmer). 4 μL of the premixed antibody solution were added to each well followed with 24 hours incubation at room temperature on orbital shaker at 600 rpm. The product activity was determined by measuring the fluorescence at 620 nm and 665 nm on Pherastar microplate reader (BMG Labtech). A ratio is calculated (665/620) for each well. Wells with DMSO only served as the positive controls and wells containing high concentration of control compound were used as negative controls. IC50 determination was performed by fitting the curve of percent control activity versus the log of the compound concentration using the GraphPad Prism 7.0 software.

[7] = target: catalytic domain (JH1) of human JAK2 (Homo sapiens (Human), UniProt O60674); assay: JAK2 LanthaScreen JH1 Binding Assay; conditions: read-out: JH1 Bind IC50
Chain of catalytic domain (JH1) of human JAK2 (O60674 826-1132): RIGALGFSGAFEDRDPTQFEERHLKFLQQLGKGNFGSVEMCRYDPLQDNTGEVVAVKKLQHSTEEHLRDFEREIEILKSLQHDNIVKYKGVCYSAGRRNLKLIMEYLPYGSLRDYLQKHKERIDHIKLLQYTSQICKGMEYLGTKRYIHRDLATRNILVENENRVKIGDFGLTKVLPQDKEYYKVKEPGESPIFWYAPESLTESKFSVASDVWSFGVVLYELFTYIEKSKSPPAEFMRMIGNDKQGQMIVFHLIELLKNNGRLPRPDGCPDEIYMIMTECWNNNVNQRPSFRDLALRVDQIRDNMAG
Method: JAK2 JH1 binding assay utilizes catalytic domain (JH1, amino acids 826-1132) of human JAK2 expressed as N-terminal FLAG-tagged, biotinylated protein in a baculovirus expression system (Carna Biosciences, Product #08-445-20N). The assay was conducted in black 384-well polystyrene plates in a final reaction volume of 20 μL. JAK2 JH1 (1.5 nM) was incubated with compounds (100 nL serially diluted in DMSO) in the presence of 50 nM fluorescent JAK2-JH1 tracer and 0.5 nM Streptavidin-Tb cryptate (Cisbio Part #610SATLB) in assay buffer (50 mM Tris, pH=7.5, 10 mM MgCl2, 0.01% Brij-35, 0.1% BSA, 1 mM EGTA, 5% Glycerol and 5 mM DTT). Non-specific binding was accessed in the presence of 2 mM ATP. After incubation for 2 hours at 25° C., LanthaScreen signals were read on a PHERAstar FS plate reader (BMG LABTECH). Data was analyzed with IDBS XLfit and GraphPad Prism 5.0 software using a four parameter dose response curve to determine IC50 for each compound.

Chain of pseudo-kinase domain (JH2) of human V617F mutant JAK2 (O60674 536-812 V617F/W659A/W777A/F794H): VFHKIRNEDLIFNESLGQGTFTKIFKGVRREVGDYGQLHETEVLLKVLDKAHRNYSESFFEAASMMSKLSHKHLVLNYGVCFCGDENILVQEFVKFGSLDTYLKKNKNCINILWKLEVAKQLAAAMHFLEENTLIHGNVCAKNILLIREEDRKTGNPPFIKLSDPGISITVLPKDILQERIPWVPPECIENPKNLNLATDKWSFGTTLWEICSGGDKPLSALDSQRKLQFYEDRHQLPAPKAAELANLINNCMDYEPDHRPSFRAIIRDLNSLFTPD

Row | SMILES | IC50 [1] [µM] | IC50 (FLT3 [2]) [µM] | Selectivity FLT3/JH2 V617F (FLT3 [3]) | IC50 (TRKA [4]) [µM] | Selectivity TRKA/JH2 V617F (TRKA [5]) | solubility at 24 h (FaSSIF Solubility Assay; read-out: FaSSIF solubility) [µg/mL] | solubility at 24 h (FaSSIF Solubility Assay; read-out: Solubility Fassif) [µg/mL] | IC50 [6] [µM] | IC50 [7] [µM]
1 | CN(C)C(=O)c1ccc(-c2[nH]c3ncc4c(c3c2-c2ccc3c(cnn3C)c2)n(C2CCCC2)c(=O)n4C)cc1 [Comparative Example F, reference compound] | ≤ 0.01 | 0.025 to 0.25 | * (selectivity of ≤500-fold) | 0.025 to 0.25 | * (selectivity of ≤500-fold) | < 20 | ≤ 50 | 0.3 to 0.8 | 
2 | COC(=O)N[C@@H]1CC[C@@H](n2c(=O)n(C)c3cnc4[nH]c(-c5ccc(C(=O)N6CCC(F)(F)CC6)c(F)c5)c(-c5ccc6c(cnn6C(C)C)c5)c4c32)C1 [Example 24, Methyl ((1R,3R)-3-(7-(4-(4,4-difluoropiperidine-1-carbonyl)-3-fluorophenyl)-8-(1-isopropyl-1H-indazol-5-yl)-3-methyl-2-oxo-3,6-dihydroimidazo[4,5-d]pyrrolo[2,3-b]pyridin-1(2H)-yl)cyclopentyl)carbamate] | ≤ 0.01 | > 2.5 | ****** (selectivity of >12500-fold) | > 2.5 | ****** (selectivity of >12500-fold) |  |  | 0.3 to 0.8 | > 1
3 | COc1ccc(-c2c(-c3cnn(Cc4ccncc4)c3)[nH]c3ncc4c(c23)n(C2CCCC2)c(=O)n4C)cc1 [Comparative Example D, reference compound] | ≤ 0.01 |  |  |  |  | < 20 |  |  | 
